Legend:
Assay type in all cases: cell-based
MOLM13 cells = assay: Cytotoxicity (WST-1 metabolic activity) towards AML cell line MOLM13; settings: for cytotoxic activity against the MOLM13 cells (in words): compared with a DMSO control, 72 hours of incubation; for EC50: Homo sapiens, MOLM-13, metabolic activity (WST-1) after 72 h of incubation, compounds diluted in DMSO, three independent experiments
Description: (§1) The pure compounds were diluted to create stock solutions with a final concentration of 20 mM in DMSO (Dimethyl Sulfoxide—for molecular biology, Sigma-Aldrich, Saint Louise, MO, USA). Normal rat kidney epithelial cells (NRK, ATCC no.: CRL-6509) and rat cardiomyoblasts (H9c2, ATCC no.: CRL-1446) were grown in DMEM medium enriched with 10% foetal bovine serum (FBS, Invitrogen, Carlsbad, CA, USA). Once the cells achieved 80% confluence, they were gently detached using trypsin treatment (0.33 mg/mL trypsin for 5 min at 37 °C), centrifuged (160× g, 4 min), and then reseeded in fresh medium to reach 25% confluence.
The AML cell line MOLM13 (DSMZ no.: ACC554, [39]) was maintained in RPMI-1640 medium supplemented with 10% FBS and 8 mM L-glutamine (Sigma Life Science, Dorset, UK). The cells were kept in suspension cultures with a density of 150,000 to 700,000 cells/mL.
(§2) All media were further supplemented with 1 IU/mL penicillin and 1 mg/mL streptomycin (both from Cambrex, Liège, Belgium) and incubated in a humidified environment (37 °C, 5% CO2). For the cytotoxicity experiments with compounds 11 to 15, the NRK and H9c2 cells were seeded in 96-well tissue culture plates (4000 cells/well, 0.1 mL) and left overnight to attach before treatments. The MOLM13 cells were seeded in 96-well tissue culture plates at 20,000 cells/well in 0.1 mL on the day of the experiment.
(§3) Compounds dissolved in DMSO were added to the cells, and the plates were incubated for 72 hours before adding the tetrazolium salt WST-1 according to the manufacturer’s instructions (Roche Diagnostics GmbH, Mannheim, Germany). The plates were further incubated for two hours before the signal was recorded at 450 nm with reference at 620 nm. For black subtraction, medium and plant compounds were added to WST-1. This procedure was performed after 24 and 72 h.
(§4) After recording WST-1, the cells were next fixed with 2% buffered formaldehyde (pH 7.4) with 0.01 mg/mL of the DNA-specific fluorescent dye, […]. As previously described, the presence of dead (apoptotic or necrotic) cells was verified by differential interference contrast and fluorescence microscopy.
(§5) EC50 values were determined by a four-parameter regression analysis as described by Viktorsson et al., using SigmaPlot ver. 14.0 (Systat Software Inc., San Jose, CA, USA).

H9c2 cells = assay: Cytotoxicity (WST-1 metabolic activity) towards rat cardiomyoblasts H9c2; settings: metabolic activity (WST-1) after 72 h of incubation, compounds diluted in DMSO, three independent experiments
Description: as §1, with “confluence. […]” for “confluence.”
as §3, with “For black subtraction, medium and plant compounds were added to WST-1. This procedure was performed after 24 and 72 h.” left out
as §4
EC50 values were determined by a four-parameter regression analysis as described by Viktorsson et al., using SigmaPlot ver. […]

NRK cells = assay: Cytotoxicity (WST-1 metabolic activity) towards normal rat kidney epithelial cells NRK; settings: for EC50: Rattus norvegicus, NRK, metabolic activity (WST-1) after 72 h of incubation, compounds diluted in DMSO, three experiments, "-" = no data available due to low or no toxicity
Description: as §1, §2, §3, §4, §5

CC1OC(OC2C(OC3C(Oc4c(-c5ccc(O)cc5)oc5cc(O)cc(O)c5c4=O)OC(CO)C(O)C3O)OC(CO)C(O)C2O)C(O)C(O)C1O (stereo not drawn) [Compound 2, kaempferol 3-O-(2’’-O-(2’’’-α-rhamnopyranosyl)-β-glucopyranosyl)-β-glucopyranoside]
cytotoxic activity against the MOLM13 cells (in words) (MOLM13 cells): Only compounds 11 and 15, which are γ- and δ-lactones, respectively, exhibited significant cytotoxic activity

CC1OC(OC2C(OC3C(Oc4c(-c5ccc(O)c(O)c5)oc5cc(O)cc(O)c5c4=O)OC(CO)C(O)C3O)OC(CO)C(O)C2O)C(O)C(O)C1O (stereo not drawn) [Compound 3, quercetin 3-O-(2’’-O-(2’’’-α-rhamnopyranosyl)-β-glucopyranosyl)-β-glucopyranoside]
cytotoxic activity against the MOLM13 cells (in words) (MOLM13 cells): Only compounds 11 and 15, which are γ- and δ-lactones, respectively, exhibited significant cytotoxic activity

CC1OC(OC2C(OC3C(Oc4c(-c5ccc(O)cc5)oc5cc(O)cc(O)c5c4=O)OC(CO)C(O)C3O)OC(COC(=O)C=Cc3ccc(O)c(O)c3)C(O)C2O)C(O)C(O)C1O (stereo not drawn) [Compound 6, kaempferol 3-O-(2’’-O-(2’’’-O-α-rhamnopyranosyl-6’’’-O-(E)-caffeoyl-)-β-glucopyranosyl)-β-glucopyranoside]
cytotoxic activity against the MOLM13 cells (in words) (MOLM13 cells): Only compounds 11 and 15, which are γ- and δ-lactones, respectively, exhibited significant cytotoxic activity

COc1cc(C2Oc3c(OC)cc(CCCO)cc3[C@H]2CO)ccc1O[C@@H]1O[C@@H](C)[C@H](O)[C@@H](O)[C@H]1O (stereo partly drawn) [Compound 8, (7R,8S)-dihydrodehydrodiconiferyl alcohol 4-O-α-rhamnopyranoside]
cytotoxic activity against the MOLM13 cells (in words) (MOLM13 cells): Only compounds 11 and 15, which are γ- and δ-lactones, respectively, exhibited significant cytotoxic activity

COc1cc(C2OC2CO)ccc1O (centres unmarked) [Compound 10, epoxyconiferyl alcohol]
cytotoxic activity against the MOLM13 cells (in words) (MOLM13 cells): Only compounds 11 and 15, which are γ- and δ-lactones, respectively, exhibited significant cytotoxic activity

CC(O)C1C=CC(=O)O1 (centres unmarked) [Compound 11, 5-hydroxy-2-hexen-4-olide]
EC50 (MOLM13 cells): 46.2 ± 0.07 µM
cytotoxic activity against the MOLM13 cells (in words) (MOLM13 cells): significant cytotoxic activity
EC50 (H9c2 cells): 48.7 ± 0.18 µM
EC50 (NRK cells): 49.6 ± 0.11 µM

CO[C@H]1CC(=O)O[C@@H]1C(C)O (some centres unmarked) [Compound 12, 3-methoxy-5-hydroxy-4-olide]
cytotoxic activity against the MOLM13 cells (in words) (MOLM13 cells): Only compounds 11 and 15, which are γ- and δ-lactones, respectively, exhibited significant cytotoxic activity

CC(O)C1OC(=O)C(C2CC(=O)OC(C)C2O)C1O [Compound 13, (4R,5S,3’S,1’’S,4’R)-4-hydroxy-3-(3’-hydroxy-4’-(1-hydroxyethyl)-oxotetrahydrofuran-5-methyltetrahydropyranone]
cytotoxic activity against the MOLM13 cells (in words) (MOLM13 cells): Only compounds 11 and 15, which are γ- and δ-lactones, respectively, exhibited significant cytotoxic activity

CC1=CC(=O)CC(C)(C)C1CCC(C)O[C@@H]1O[C@H](CO)[C@@H](O)[C@H](O)[C@H]1O (stereo partly drawn) [Compound 14, blumenol C 9-O-β-glucopyranoside]
cytotoxic activity against the MOLM13 cells (in words) (MOLM13 cells): Only compounds 11 and 15, which are γ- and δ-lactones, respectively, exhibited significant cytotoxic activity

CC(O)C(=O)CCC(=O)OC1C=CC(=O)OC1C (centres unmarked) [Compound 15, 4-O-(5-hydroxy-4-oxohexanoyl) osmundalactone]
EC50 (MOLM13 cells): 111.9 ± 0.07 µM
cytotoxic activity against the MOLM13 cells (in words) (MOLM13 cells): significant cytotoxic activity
EC50 (H9c2 cells): 102.7 ± 0.12 µM
reduced metabolic activity in the NRK cells at the highest concentration tested (NRK cells; 200 μM, 72 h): did not detect reduced metabolic activity
EC50 (NRK cells): > 200 µM

Reference: article PMC11397566, “Cytotoxic Natural Products from the Jurassic Relict Osmunda regalis L” (Molecules, 2024)
